Source: patent US12521356B2, “Compositions and methods for treating pain, inflammation, infection, malaria, and sepsis” (Duke University, priority 2018, dated 2026)

Biological target: T1, ALX (Homo sapiens, UniProt P25090)
T1 construct: host or cells: HEK293 flip-in cells
T1 sequence (P25090 1-351): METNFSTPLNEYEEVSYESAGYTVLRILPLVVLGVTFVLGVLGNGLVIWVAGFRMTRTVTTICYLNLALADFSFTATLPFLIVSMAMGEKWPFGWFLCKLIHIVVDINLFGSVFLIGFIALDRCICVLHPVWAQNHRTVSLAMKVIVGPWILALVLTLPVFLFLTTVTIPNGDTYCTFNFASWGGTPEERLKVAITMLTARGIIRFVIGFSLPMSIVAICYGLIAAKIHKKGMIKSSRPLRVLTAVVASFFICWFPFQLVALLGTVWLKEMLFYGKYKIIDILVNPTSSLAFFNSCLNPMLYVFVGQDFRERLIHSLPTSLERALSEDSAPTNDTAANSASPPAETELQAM
Test: Ca2+ imaging (Fura-2AM) in HEK293 cells transfected with ALX cDNA
Type: cell-based
Settings: HEK293 cells expressing ALX
Excerpt: FIG. 10A-FIG. 10C. Characterization of intracellular Ca^2+ changes in HEK293 cells expressing ChemR23, GPR32, and ALX. Ca^2+ imaging with Fura-2AM indicator showing iCa^2+ levels in HEK293 cells transfected with ChemR23 (FIG. 10A), GPR32 (FIG. 10B), and ALX (FIG. 10C) cDNAs. Note that NPD1 fails to elicit iCa^2+ increase in HEK293 cells expressing ChemR23, GPR32, and ALX. […] ATP is included as a positive control. *P<0.05, compared with baseline n=44˜97 cells from 3 cultures. All the data are expressed as mean±s.e.m.
HEK cell culture and transfection. HEK293 flip-in cell line was purchased from Duke Cell Culture Facility. Cells were cultured in high glucose (4.5 g/L) Dulbecco's Modified Eagle's Medium containing 10% (v/v) fetal bovine serum (Gibco). Transfection (2 μg cDNA) was performed with Lonza electroporation (Lonza) at 70% confluency and the transfected cells were cultured in the same growth medium for 48 h before use. The hGPR37-V5 pLenti304 plasmids were obtained from DNASU (Tempe, AZ), and hGPR32, hChemR23 and hALX pcDNA3 plasmids were provided by Dr. Serhan from Harvard Medical School, Boston.
Calcium imaging. HEK 293 cells, with or without transfection of Gpr37, GPR32, ChemR23 or ALX1 cDNA, were loaded with 5 μM Fura-2AM (Invitrogen) for 1 hour and then were resuspended in normal external buffer (140 NaCl, 5 KCl, 2 CaCl2, 2 MgCl2, 10 HEPES, in mM, titrated to pH 7.4 with NaOH) or external Ca^2+-free buffer (140 NaCl, 2 MgCl2, 5 EGTA, 10 HEPES, in mM, titrated to pH 7.4 with NaOH). Peritoneal macrophages, collected from WT and Gpr37 KO mice, were loaded with 5 μM […] (Invitrogen) for 1 hour and then were resuspended in normal external buffer. Images of the HEK 293 cells and macrophages with the excitation wavelength of 340 nm and 380 nm were captured with a cooled Digital CMOS camera (ORCA-Flash 4.0, Hamamatsu Photonics K.K, Japan). The ratio of fluorescence intensity of the two wavelengths in each experiment was analyzed using MetaFluor (Molecular Devices). The Shutter speed and wavelength was controlled by Lambda DG-4 system (Sutter instrument Co., Novato, CA). Values from each of the experiments were normalized to the baseline ratio of 340/380 nm.
Several SPM receptors have been identified such as ChemR23 for RvE1, GPR32 for RvD1, and ALX for lipoxin A. We transfected human cDNAs of ChemR23, GPR32, and ALX in HEK293 cells and checked Ca^2+ responses following the treatment of each SPM.

iCa2+ increase / Ca2+ response: failed to elicit iCa^2+ increase
Compound: CC/C=C\C[C@H](O)\C=C/C=C/C=C/[C@H](O)C/C=C\C/C=C\CCC(=O)O [NPD1, neuroprotectin D1]
